Some test systems named below: COLO 205; SN12C; RXF 393; EKVX; A549; NCI-H460; M14; SK-MEL-28; MDA-N; NCI-H23; SNB-75; K562; HT-29; OVCAR-5; UO-31; HL-60; MCF7; MDA-MB-231; NCI-H522; CAKI-1.
Test in all cases: inhibition of tumour cell growth, NCI panel, 48 h

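Results reflect a 48-hour exposure of cells in 96-well plates to compound at five concentrations. Abbreviation: GI50, concentration required for 50% inhibition of growth.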 Active and inactive are the calls of the source. Cut-off read from the data, not from the text of the source: active = GI50 up to about 1.1 µM and inactive = higher.

For `NCOC(=O)Cc1ccc(Br)cc1`, the GI50 in the experiment on COLO 205, with SN12C, in the experiment with RXF 393, with EKVX, in the experiment with A549 and in the experiment with NCI-H460 was > 100 µM (inactive) in each case. In addition, the GI50 with M14, in the experiment on SK-MEL-28, in the experiment on MDA-N, in the experiment with NCI-H23, with SNB-75 and in the experiment on K562 was > 100 µM (inactive) throughout. Moreover, the GI50 is > 100 µM (inactive) with HT-29; > 100 µM (inactive) in the experiment on OVCAR-5; > 100 µM (inactive) in the experiment with UO-31; 42.3 µM (inactive) in the experiment with HL-60; > 100 µM (inactive) with MCF7; > 100 µM (inactive) with MDA-MB-231. For the same molecule, the GI50 in the experiment on NCI-H522 is > 100 µM (inactive).
As to `COC1OC2COC(c3ccccc3)OC2C(O)C1OC(=S)c1ccccc1` (stereo not drawn), the GI50 is 16.7 µM (inactive) with COLO 205; 21.8 µM (inactive) in the experiment with SN12C; 41.4 µM (inactive) in the experiment on RXF 393; 19.5 µM (inactive) with EKVX; 0.607 µM (active) in the experiment with A549; 28.6 µM (inactive) in the experiment with NCI-H460. For the same molecule, the GI50 with M14 is 46.2 µM (inactive); in the experiment with SK-MEL-28, 26.9 µM (inactive); with MDA-N it was 27.3 µM (inactive); with NCI-H23, 59.7 µM (inactive); with K562, 53.3 µM (inactive); in the experiment with HT-29 it was 20.5 µM (inactive). Also, the GI50 with CAKI-1 was 24.4 µM (inactive); with OVCAR-5 it was > 100 µM (inactive); with UO-31 it was 61.4 µM (inactive); with MCF7, 36.3 µM (inactive); in the experiment with MDA-MB-231, 36.7 µM (inactive).
Regarding `C/C(=C1/N=C(c2ccccc2)OC1=O)c1ccccc1`, the GI50 in the experiment with COLO 205, in the experiment with SN12C, with EKVX, with A549, in the experiment with NCI-H460 and with M14 was > 100 µM (inactive) each time. Besides, the GI50 in the experiment with SK-MEL-28, in the experiment with MDA-N, in the experiment with NCI-H23, with SNB-75, in the experiment on K562 and in the experiment with HT-29 was > 100 µM (inactive) each time. Also, the GI50 in the experiment with CAKI-1 was > 100 µM (inactive); with OVCAR-5 it was > 100 µM (inactive); with HL-60 it was 25.6 µM (inactive); in the experiment with MCF7 it was 82 µM (inactive); in the experiment with MDA-MB-231, > 100 µM (inactive); in the experiment with NCI-H522, 85.3 µM (inactive).
For the molecule `C=CCOC(=O)C1=C(CCC[C@@H](C)O[Si](C)(C)C(C)(C)C)N=C(N)N2[C@H](CCO)CC[C@@H]12`, the GI50 with COLO 205 was 10.9 µM (inactive); in the experiment with SN12C, 16.5 µM (inactive); in the experiment with A549, 10.3 µM (inactive); with NCI-H460 it was 12.9 µM (inactive); in the experiment with M14 it was 13.9 µM (inactive); in the experiment on SK-MEL-28, 17.5 µM (inactive). In addition, the GI50 is 17 µM (inactive) in the experiment on MDA-N; 17.7 µM (inactive) in the experiment on NCI-H23; 16.4 µM (inactive) in the experiment with SNB-75; 6.34 µM (inactive) with K562; 13.4 µM (inactive) with CAKI-1; 16.1 µM (inactive) in the experiment with UO-31. The GI50 is 7.69 µM (inactive) in the experiment with MCF7, 15.3 µM (inactive) with MDA-MB-231 and 12.7 µM (inactive) in the experiment on NCI-H522.
Regarding `CC1SC(=O)SC1C` (stereo not drawn), the GI50 with COLO 205, with SN12C, in the experiment on EKVX, in the experiment with A549, in the experiment on NCI-H460 and with M14 was > 100 µM (inactive) in each case. The GI50 in the experiment on SK-MEL-28, in the experiment with MDA-N, in the experiment with SNB-75, in the experiment with K562, with OVCAR-5 and in the experiment on UO-31 was > 100 µM (inactive) in each case. Also, the GI50 with HL-60, in the experiment on MCF7, in the experiment on MDA-MB-231 and in the experiment with NCI-H522 was > 100 µM (inactive) throughout.
On to `CCOC(=O)/C=C/CC(C)(C)COC(C)=O`, for which the GI50 is > 10 µM (inactive) in the experiment on SN12C; 5.32 µM (inactive) in the experiment with RXF 393; > 10 µM (inactive) with A549; > 10 µM (inactive) in the experiment on NCI-H460; 6.75 µM (inactive) in the experiment on M14; > 10 µM (inactive) in the experiment with SK-MEL-28. Also, the GI50 in the experiment with MDA-N is 7.48 µM (inactive); in the experiment on NCI-H23, > 10 µM (inactive); with SNB-75, 5.11 µM (inactive); in the experiment on K562 it was 9.91 µM (inactive); in the experiment on OVCAR-5, 9.08 µM (inactive); with UO-31, > 10 µM (inactive). For the same molecule, the GI50 with HL-60, in the experiment on MCF7, in the experiment with MDA-MB-231 and with NCI-H522 was > 10 µM (inactive) in each case.
Regarding `CC(=O)OC(OC(C)=O)c1c2ccccc2cc2ccccc12`, the GI50 in the experiment with COLO 205 is 17.8 µM (inactive); in the experiment with SN12C it was 12.9 µM (inactive); in the experiment with RXF 393, 13.3 µM (inactive); in the experiment on EKVX, 20 µM (inactive); in the experiment on A549, 19.1 µM (inactive); in the experiment on NCI-H460, 14.6 µM (inactive). For the same molecule, the GI50 in the experiment on M14 is 20.5 µM (inactive); in the experiment with MDA-N, 22 µM (inactive); in the experiment with NCI-H23, 25.1 µM (inactive); in the experiment with SNB-75 it was 17.3 µM (inactive); in the experiment with K562 it was 3.56 µM (inactive); in the experiment on HT-29, 13.4 µM (inactive). Further, the GI50 is 30.5 µM (inactive) in the experiment with CAKI-1; 30.5 µM (inactive) in the experiment on OVCAR-5; 19.3 µM (inactive) in the experiment on UO-31; 23.7 µM (inactive) with HL-60; 16.5 µM (inactive) in the experiment on MCF7; 18 µM (inactive) with MDA-MB-231.
As to `Cn1c(=O)n2c(-c3ccccc3)c(-c3ccccc3)n2c1=O`, the GI50 with COLO 205, with SN12C, with RXF 393, with EKVX, in the experiment with A549 and in the experiment on NCI-H460 was > 100 µM (inactive) in each case. The GI50 in the experiment on M14 was > 100 µM (inactive); in the experiment on SK-MEL-28, > 100 µM (inactive); in the experiment with MDA-N, > 100 µM (inactive); with NCI-H23, > 100 µM (inactive); in the experiment on SNB-75 it was 99.1 µM (inactive); in the experiment with K562, > 100 µM (inactive). The GI50 with HT-29 is > 100 µM (inactive); in the experiment on CAKI-1 it was > 100 µM (inactive); in the experiment with OVCAR-5 it was > 100 µM (inactive); in the experiment on UO-31, 82 µM (inactive); with HL-60 it was 46.9 µM (inactive); in the experiment with MCF7, > 100 µM (inactive). Also, the GI50 with MDA-MB-231 was > 100 µM (inactive).
For `CC(C)(Br)C(=O)/C=C/c1ccccc1`, the GI50 was 8.24 µM (inactive) in the experiment with COLO 205; 6.21 µM (inactive) in the experiment with SN12C; 7.62 µM (inactive) in the experiment on EKVX; 14.8 µM (inactive) in the experiment with A549; 16.3 µM (inactive) in the experiment with NCI-H460; 1.56 µM (inactive) in the experiment with M14. Moreover, the GI50 was 14.9 µM (inactive) with SK-MEL-28; 3.5 µM (inactive) with MDA-N; 1.94 µM (inactive) in the experiment with NCI-H23; 16.1 µM (inactive) with SNB-75; 1.55 µM (inactive) with K562; 4.23 µM (inactive) in the experiment on HT-29. For the same molecule, the GI50 is 6.12 µM (inactive) with CAKI-1; 6.56 µM (inactive) with OVCAR-5; 1.84 µM (inactive) with UO-31; 3.91 µM (inactive) in the experiment on HL-60; 3.56 µM (inactive) in the experiment on MCF7; 8.79 µM (inactive) in the experiment with MDA-MB-231. The GI50 in the experiment on NCI-H522 is 0.136 µM (active).
With `O=C(O)c1c(CC(Cc2ccc3c(c2)CCC3)C(=O)O)ccc2c1CCC2` (stereo not drawn), the GI50 in the experiment with COLO 205, in the experiment on SN12C, in the experiment on EKVX, in the experiment with A549, in the experiment with NCI-H460 and with M14 was > 100 µM (inactive) throughout. The GI50 in the experiment on SK-MEL-28, in the experiment with MDA-N, in the experiment on NCI-H23, with K562, in the experiment on HT-29 and in the experiment on CAKI-1 was > 100 µM (inactive) each time. The GI50 in the experiment with OVCAR-5, in the experiment on UO-31, in the experiment on HL-60, with MCF7, in the experiment with MDA-MB-231 and in the experiment on NCI-H522 was > 100 µM (inactive) in each case.
Regarding `CC1CN=C(N(C)C(=O)Nc2ccc(Cl)cc2)S1` (stereo not drawn), the GI50 in the experiment with COLO 205 was 13.4 µM (inactive); in the experiment on SN12C, 15.2 µM (inactive); in the experiment on EKVX, 21.4 µM (inactive); in the experiment with A549 it was 16.7 µM (inactive); in the experiment on NCI-H460, 3.77 µM (inactive); with M14, 1.72 µM (inactive). Besides, the GI50 in the experiment with SK-MEL-28 is 16.5 µM (inactive); with MDA-N, 8.69 µM (inactive); in the experiment with NCI-H23 it was 21.3 µM (inactive); in the experiment with SNB-75, > 100 µM (inactive); in the experiment on K562 it was 8.61 µM (inactive); in the experiment with HT-29, 31.3 µM (inactive). Also, the GI50 was 3.64 µM (inactive) in the experiment on CAKI-1; 4.47 µM (inactive) with OVCAR-5; 10.1 µM (inactive) in the experiment with UO-31; 15.7 µM (inactive) with HL-60; 32.6 µM (inactive) with MCF7; 32.1 µM (inactive) in the experiment with MDA-MB-231.
